# Assay results published in ChEMBL document CHEMBL4261653, “PPARγ-sparing thiazolidinediones as insulin sensitizers. Design, synthesis and selection of compounds for clinical development” (Bioorg Med Chem, 2018).
# Assay: Oral bioavailability in rat
# Format: ADME, organism-based
# Details: in vivo
row,Compound,bioavailability [%]
1,COc1cccc(C(=O)COc2ccc(CC3SC(=O)NC3=O)cc2)c1 (configuration not stated),100
2,CCc1ccc(C(=O)COc2ccc(CC3SC(=O)NC3=O)cc2)nc1 (configuration not stated) [MITOGLITAZONE],73
